Assay results reported in patent US6635637B2, “Cyclic oxyguanidine protease inhibitors” (Dimensional Pharmaceuticals, Inc., priority 2000, dated 2003).
Counter-ions that a name gives are not always drawn.

Biological target: T1, human α-thrombin (Homo sapiens, UniProt P00734)
T1 construct: Purified human α-thrombin; purchased Enzyme Research Laboratories (South Bend, Ind.)
Assay: In vitro inhibition of purified thrombin (p-nitroanilide substrate hydrolysis, Ki determination)
Format: biochemical
Details: purified human α-thrombin 0.5 nM; substrate N-succinyl-Ala-Ala-Pro-Arg-p-nitroanilide 32 μM; 37° C.; pH 7.5
Excerpt: Reagents: All buffer salts were obtained from Sigma Chemical Company (St. Louis, Mo.), and were of the highest purity available. The enzyme substrates, N—N-benzoyl-Phe-Val-Arg-p-nitroanilide (Sigma B7632), N-benzoyl-Ile-Glu-Gly-Arg-p-nitroanilide hydrochloride (Sigma B2291), N-p-Tosyl-Gly-Pro-Lys-p-nitroanilide (Sigma T6140), N-succinyl-Ala-Ala-Pro-Phe-p-nitroanilide (Sigma S7388) and N-CBZ-Val-Gly-Arg-p-nitroanilide (Sigma C7271) were obtained from Sigma. N-succinyl-Ala-Ala-Pro-Arg-p-nitroanilide (BACHEM L-1720) and N-succinyl-Ala-Ala-Pro-Val-p-nitroanilide (BACHEM L-1770) were obtained from BACHEM (King of Prussia, Pa.).
Human α-thrombin, human factor Xa and human plasmin were obtained from Enzyme Research Laboratories (South Bend, Ind.). Bovine α-chymotrypsin (Sigma C4129), bovine trypsin (Sigma T8642) and human kidney cell urokinase (Sigma U5004) were obtained from Sigma. Human leukocyte elastase was obtained from Elastin Products (Pacific, Mo.).
Ki Determinations: All assays are based on the ability of the test compound to inhibit the enzyme catalyzed hydrolysis of a peptide p-nitroanilide substrate. […] In general, substrate concentrations are lower than the experimentally determined value for Km. […]
In a typical Ki determination, into each well of a 96 well plate is pipetted 280 μL of substrate solution, 10 μL of test compound solution, and the plate allowed to thermally equilibrate at 37° C. in a Molecular Devices plate reader for >15 minutes. Reactions were initiated by the addition of a 10 μL aliquot of enzyme and the absorbance increase at 405 nm is recorded for 15 minutes. […] The ratio of the velocity (rate of change in absorbance as a function of time) for a sample containing no test compound is divided by the velocity of a sample containing test compound, and is plotted as a function of test compound concentration. The data are fit to a linear regression, and the value of the slope of the line calculated. The inverse of the slope is the experimentally determined Ki value. […]

For `C=CCN(C(=O)c1cc(Cl)cc(OCC2CCN(C(=N)N)OC2)c1)C1CCCC1` (stereo not drawn) [Example 3, 5-{[5-Chloro-3-(N-cyclopentyl-N-prop-2-enylcarbamoyl)phenoxy]methyl}-1,2-oxazaperhydroine-2-carboxamidine trifluoroacetate], the Ki was 8 nM.
With `Cc1cc(OCC2CCN(C(=N)N)OC2)cc(OS(=O)(=O)c2ccccc2S(C)(=O)=O)c1` (stereo not drawn) [Example 1, 3-[(2-Amidino(1,2-oxazaperhydroin-5-yl))methoxy]-5-methylphenyl 2-(methylsulfonyl)benzenesulfonate Trifluoroacetate] the Ki was 7 nM.
`CS(=O)(=O)c1ccccc1S(=O)(=O)Oc1cc(Cl)cc(OCC2CCN(C(=N)N)OC2)c1` (stereo not drawn) [Example 2, 3-[(2-Amidino(1,2-oxazaperhydroin-5-yl))methoxy]-5-chlorophenyl 2-(methylsulfonyl)benzenesulfonate trifluoroacetate] was tested, and the Ki was 13 nM.
